In publication PMC9705844, “Inhibitory Activity of 4-O-Benzoyl-3′-O-(OMethylsinapoyl) Sucrose from Polygala tenuifolia on Escherichia coli β-Glucuronidase” (Journal of Microbiology and Biotechnology, 2021):

Assays:
β-glucuronidase [1] = molecular target: T1, β-glucuronidase (Escherichia coli, UniProt P05804); assay: PNPG hydrolysis assay at […] nm with commercial enzyme; positive control; assay type: biochemical
T1 construct: gene uidA

β-glucuronidase [2] = molecular target: T1, β-glucuronidase; assay: PNPG hydrolysis assay at […] nm with commercial enzyme; Lineweaver-Burk and secondary plots (IC50 […]); assay type: biochemical

T1 sequence (P05804 whole entry): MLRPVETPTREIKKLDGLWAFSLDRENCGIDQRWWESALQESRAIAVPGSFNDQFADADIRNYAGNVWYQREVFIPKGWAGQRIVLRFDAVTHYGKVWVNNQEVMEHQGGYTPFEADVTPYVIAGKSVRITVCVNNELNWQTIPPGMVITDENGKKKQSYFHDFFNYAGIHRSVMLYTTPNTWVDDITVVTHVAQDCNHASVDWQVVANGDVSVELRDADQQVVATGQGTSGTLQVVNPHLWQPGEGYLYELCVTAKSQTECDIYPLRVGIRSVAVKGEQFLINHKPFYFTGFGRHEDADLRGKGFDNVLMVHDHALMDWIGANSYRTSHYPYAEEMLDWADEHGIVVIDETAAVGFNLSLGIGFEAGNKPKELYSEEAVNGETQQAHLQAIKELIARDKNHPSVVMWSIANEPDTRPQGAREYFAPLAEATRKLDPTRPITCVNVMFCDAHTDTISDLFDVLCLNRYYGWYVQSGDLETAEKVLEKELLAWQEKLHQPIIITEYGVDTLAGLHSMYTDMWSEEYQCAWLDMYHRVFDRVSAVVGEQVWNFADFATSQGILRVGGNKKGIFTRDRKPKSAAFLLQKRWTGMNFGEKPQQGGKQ

Structure (SMILES) | IC50 (β-glucuronidase [1]) | Ki (β-glucuronidase [2])
O=C(O)[C@@H](O)[C@H]1OC(=O)[C@H](O)[C@H]1O [DSA, D-saccharic acid 1,4-lactone] | 19.6 ± 2.4 µM | 
COc1cc(/C=C/C(=O)O[C@H]2[C@H](O)[C@@H](CO)O[C@@]2(CO)O[C@H]2O[C@H](CO)[C@@H](OC(=O)c3ccccc3)[C@H](O)[C@H]2O)cc(OC)c1OC [compound 3, 4-O-Benzoyl-3′-O-(O-methylsinapoyl) sucrose] |  | 13.4 µM
